Test results published in ChEMBL document CHEMBL1127765, “16-propyl derivatives of estradiol as inhibitors of 17-hydroxysteroid dehydrogenase type 1” (Bioorg Med Chem Lett, 1994).

Experiments:
[1] = target: T1, 17-beta-hydroxysteroid dehydrogenase type 1 (Homo sapiens) (UniProt P14061); experiment: Compound was tested for the inhibition of 17-beta-hydroxysteroid dehydrogenase type 1(17-beta-HSD type 1) at 10 uM concentration
T1 sequence (whole entry): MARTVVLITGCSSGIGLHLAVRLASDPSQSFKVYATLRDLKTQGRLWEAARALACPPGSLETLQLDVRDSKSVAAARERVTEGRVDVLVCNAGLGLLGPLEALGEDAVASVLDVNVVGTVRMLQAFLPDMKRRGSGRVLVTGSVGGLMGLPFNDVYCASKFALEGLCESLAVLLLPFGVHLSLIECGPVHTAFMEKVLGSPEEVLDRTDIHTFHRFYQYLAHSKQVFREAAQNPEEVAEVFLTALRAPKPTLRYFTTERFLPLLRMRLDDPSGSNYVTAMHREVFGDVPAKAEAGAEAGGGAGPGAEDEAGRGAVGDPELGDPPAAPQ

[2] = target: T1, 17-beta-hydroxysteroid dehydrogenase type 1 (Homo sapiens); experiment: Compound was tested for the inhibition of 17-beta-hydroxysteroid dehydrogenase type 1(17-beta-HSD type 1) at 1 uM concentration
[3] = target: T2, 17-beta-hydroxysteroid dehydrogenase type 1 (Homo sapiens, UniProt P14061); experiment: Compound was tested for the inhibition of 17-beta-hydroxysteroid dehydrogenase type 1(17-beta-HSD type 1)
T2 sequence (P14061 whole entry): T1 sequence (whole entry)

inhibition [1]	inhibition [2]	IC50 [3]	SMILES
95%	82%	1150 nM	C[C@]12CC[C@@H]3c4ccc(O)cc4CC[C@H]3[C@@H]1C[C@@H](CCCSC#N)[C@@H]2O
92%	68%	420 nM	C[C@]12CC[C@@H]3c4ccc(O)cc4CC[C@H]3[C@@H]1C[C@@H](CCCI)[C@@H]2O
81%	49%	4300 nM	C[C@]12CC[C@@H]3c4ccc(O)cc4CC[C@H]3[C@@H]1C[C@@H](CCCF)[C@@H]2O
63%	26%	–	C=CC[C@@H]1C[C@H]2[C@@H]3CCc4cc(O)ccc4[C@H]3CC[C@]2(C)[C@H]1O
92%	88%	1000 nM	C[C@]12CC[C@@H]3c4ccc(O)cc4CC[C@H]3[C@@H]1C[C@@H](CCCCl)[C@@H]2O
57%	17%	–	C[C@]12CC[C@@H]3c4ccc(O)cc4CC[C@H]3[C@@H]1C[C@@H](CCCO)[C@@H]2O
69%	29%	–	CCC[C@@H]1C[C@H]2[C@@H]3CCc4cc(O)ccc4[C@H]3CC[C@]2(C)[C@H]1O

SMILES	inhibition [1]	inhibition [2]	IC50 [3]
C[C@]12CC[C@@H]3c4ccc(O)cc4CC[C@H]3[C@@H]1C[C@@H](CCCBr)[C@@H]2O	94%	70%	460 nM
